Data on eleven molecules can be found in ChEMBL document CHEMBL1201862, “PubChem BioAssay data set” (2004).

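96-well plates; 48 h exposure; 5 concentrations. Endpoints by linear interpolation between flanking doses. Not reached: highest tested concentration assigned. GI50: concentration for 50% inhibition of growth.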 Calls of active or inactive are those of the source. Cut-off read from the data, not from the text of the source: active = GI50 up to about 1.1 µM and inactive = higher. A value given as a limit tells only on which side of the number the result lay.

Some test systems named below: SN12C; UACC-257; 786-0; EKVX; SK-MEL-5; SK-MEL-2; NCI-H522; HCC 2998; NCI-H460; HOP-92; OVCAR-3; SF-268; HL-60; LOX IMVI; SW-620; COLO 205; RPMI-8226; SF-295; OVCAR-4.
Common to all, as to test: NCI anticancer screen, dose series, 48 h

In the case of `CCCSc1ccc2[nH]c(N3C(=O)/C(=C/c4ccc(O)c(OC)c4)N=C3c3ccccc3)cc2c1`, the GI50 in the test with SN12C was 4.18 µM (inactive); with UACC-257, 4.56 µM (inactive); in the test on 786-0, 16.3 µM (inactive); with EKVX, 14.5 µM (inactive); with SK-MEL-5 it was 4.51 µM (inactive); in the test with SK-MEL-2 it was 0.0775 µM (active). In addition, the GI50 with NCI-H522 is 4.07 µM (inactive); in the test on HCC 2998, 2.8 µM (inactive); in the test on NCI-H460, 0.0422 µM (active); in the test on HOP-92, 22 µM (inactive); in the test with OVCAR-3, 6.7 µM (inactive); in the test on SF-268, 9.16 µM (inactive). For the same molecule, the GI50 in the test with HL-60 is 2.82 µM (inactive); in the test with LOX IMVI, 7.14 µM (inactive); in the test on SW-620, 5.61 µM (inactive); with COLO 205, 4.27 µM (inactive); in the test on RPMI-8226 it was 3.53 µM (inactive).

`Cc1ccc(C)c(NC(=O)CC2C(=O)Nc3ccccc3S2(=O)=O)c1` (stereo not drawn): the GI50 is > 100 µM (inactive) in the test on SN12C; > 100 µM (inactive) in the test on UACC-257; 22.8 µM (inactive) in the test on 786-0; 31.2 µM (inactive) in the test on EKVX; 27.7 µM (inactive) with SK-MEL-5; > 100 µM (inactive) in the test with SK-MEL-2. In addition, the GI50 was 77.8 µM (inactive) with HCC 2998; > 100 µM (inactive) in the test with NCI-H460; 38.8 µM (inactive) in the test with HOP-92; 42 µM (inactive) in the test on OVCAR-3; > 100 µM (inactive) with SF-295; 42.7 µM (inactive) in the test on SF-268. Moreover, the GI50 with HL-60 is 49.9 µM (inactive); in the test with LOX IMVI it was 51.3 µM (inactive); in the test on SW-620 it was 36.6 µM (inactive); with RPMI-8226, 36.6 µM (inactive); in the test with OVCAR-4 it was 19 µM (inactive).

Consider `COc1ccc2[nH]c3c(c2c1)CCN(C)CC3`, for which the GI50 with UACC-257, in the test on 786-0, in the test on EKVX, in the test with SK-MEL-5, with SK-MEL-2 and in the test on HCC 2998 was > 100 µM (inactive) throughout. For the same molecule, the GI50 in the test with NCI-H460 is > 100 µM (inactive); in the test with HOP-92, > 100 µM (inactive); with OVCAR-3, > 100 µM (inactive); with SF-295 it was > 100 µM (inactive); in the test on SF-268, > 100 µM (inactive); in the test on HL-60, 71.8 µM (inactive). The GI50 in the test with LOX IMVI is > 100 µM (inactive); in the test on SW-620, > 100 µM (inactive); in the test with COLO 205, > 100 µM (inactive); with RPMI-8226 it was > 100 µM (inactive); in the test on OVCAR-4 it was 45.3 µM (inactive).

With `O=C(O)c1cc(=O)c2[nH]c3ccccc3c2s1`, the GI50 in the test on SN12C, in the test with UACC-257, in the test on 786-0, in the test on EKVX, in the test on SK-MEL-5 and with SK-MEL-2 was > 100 µM (inactive) each time. Besides, the GI50 in the test with NCI-H522, with HCC 2998, in the test with NCI-H460, with HOP-92, in the test on OVCAR-3 and in the test on SF-295 was > 100 µM (inactive) throughout. The GI50 in the test on SF-268, in the test on HL-60, with SW-620, in the test on COLO 205, in the test on RPMI-8226 and in the test with OVCAR-4 was > 100 µM (inactive) each time.

Turning to `Cc1cccc(C)c1NC(=O)C(=O)C(C#N)c1ccccc1Cl` (stereo not drawn), the GI50 in the test on SN12C, with UACC-257, in the test with 786-0, in the test on EKVX, in the test with SK-MEL-5 and in the test on SK-MEL-2 was > 100 µM (inactive) in each case. For the same molecule, the GI50 in the test with NCI-H522, in the test on HCC 2998, in the test with NCI-H460, with HOP-92, in the test on OVCAR-3 and in the test on SF-295 was > 100 µM (inactive) each time. Besides, the GI50 is > 100 µM (inactive) in the test with SF-268; 80.2 µM (inactive) in the test on HL-60; > 100 µM (inactive) with SW-620; > 100 µM (inactive) in the test with COLO 205; > 100 µM (inactive) with RPMI-8226; > 100 µM (inactive) with OVCAR-4.

With `O=C1OC(c2ccccc2)=N/C1=C/NC(CO)C(=O)O` (stereo not drawn), the GI50 in the test with UACC-257, with 786-0, with EKVX, in the test with SK-MEL-5, with SK-MEL-2 and with NCI-H522 was > 100 µM (inactive) in each case. Moreover, the GI50 in the test on HCC 2998, in the test with NCI-H460, in the test with HOP-92, in the test on OVCAR-3, with SF-295 and in the test with SF-268 was > 100 µM (inactive) in each case. For the same molecule, the GI50 in the test on HL-60, with LOX IMVI, in the test with SW-620, with COLO 205, in the test with RPMI-8226 and in the test with OVCAR-4 was > 100 µM (inactive) each time.

Regarding `CCS(CC)(CC)CC1CCCC2=CCC(P(=O)(c3ccccc3)c3ccccc3)CC21` (stereo not drawn), the GI50 is 11.9 µM (inactive) in the test on SN12C; > 10 µM (inactive) with UACC-257; 10.9 µM (inactive) with 786-0; 14.3 µM (inactive) in the test on EKVX; 13.2 µM (inactive) in the test on SK-MEL-5; 14.2 µM (inactive) in the test on SK-MEL-2. Also, the GI50 with NCI-H522 was 11 µM (inactive); with HCC 2998, 9.25 µM (inactive); in the test on NCI-H460, 10.3 µM (inactive); in the test with HOP-92, 2.5 µM (inactive); in the test on OVCAR-3, 13.7 µM (inactive); in the test on SF-295, 3.81 µM (inactive). Also, the GI50 in the test on SF-268 is 11.4 µM (inactive); in the test with HL-60 it was 3.31 µM (inactive); in the test on LOX IMVI, 14.7 µM (inactive); in the test on SW-620, 13.9 µM (inactive); in the test with COLO 205, 17 µM (inactive); with OVCAR-4, 10.1 µM (inactive).

For `COc1ccc(C[C@H](N)C(=O)NC2C(CO)OC(n3cnc4c(N(C)C)ncnc43)C2O)cc1` (stereo partly drawn), the GI50 in the test on SN12C was 0.178 µM (active); in the test on UACC-257, 0.358 µM (active); in the test with 786-0 it was 0.695 µM (active); in the test on EKVX it was 0.202 µM (active); with SK-MEL-5, 0.234 µM (active); in the test on SK-MEL-2, 0.415 µM (active). The GI50 with HCC 2998 is 0.29 µM (active); with NCI-H460 it was 0.255 µM (active); in the test on HOP-92 it was 0.196 µM (active); with OVCAR-3, 0.273 µM (active); with SF-295, 0.34 µM (active); in the test with SF-268 it was 0.354 µM (active). Further, the GI50 in the test on HL-60 is 0.141 µM (active); in the test on LOX IMVI, 0.112 µM (active); in the test on SW-620, 0.143 µM (active); in the test on COLO 205, 0.154 µM (active); in the test with RPMI-8226 it was 0.22 µM (active); in the test on OVCAR-4, 0.389 µM (active).

In the case of `C=CCOC(C)(C)C1=CCC(C)CC1` (stereo not drawn), the GI50 with SN12C, in the test on UACC-257, with 786-0, in the test with EKVX, with SK-MEL-5 and in the test on NCI-H522 was > 100 µM (inactive) each time. Moreover, the GI50 in the test with HCC 2998, in the test with NCI-H460, in the test on HOP-92, in the test with OVCAR-3, in the test on SF-295 and in the test on SF-268 was > 100 µM (inactive) throughout. Besides, the GI50 with HL-60, in the test with SW-620, in the test on COLO 205, with RPMI-8226 and in the test with OVCAR-4 was > 100 µM (inactive) in each case.

Turning to `Nc1nc(OCc2ccccc2)c2nc[nH]c2n1` [6-O-BENZYLGUANINE], the GI50 in the test with SN12C is 90.4 µM (inactive); with UACC-257 it was 91 µM (inactive); in the test with 786-0, 80.7 µM (inactive); in the test with EKVX, 99.5 µM (inactive); in the test with SK-MEL-5, 81.1 µM (inactive); in the test with SK-MEL-2, 68.9 µM (inactive). The GI50 in the test on NCI-H522 is 49.4 µM (inactive); with HCC 2998 it was 148 µM (inactive); in the test on NCI-H460 it was 67.6 µM (inactive); with HOP-92, 64.4 µM (inactive); in the test on OVCAR-3 it was 90.2 µM (inactive); in the test with SF-295, 121 µM (inactive). The GI50 was 70 µM (inactive) with SF-268; 45.7 µM (inactive) in the test on HL-60; 64.6 µM (inactive) in the test on LOX IMVI; 169 µM (inactive) with SW-620; 124 µM (inactive) with COLO 205; 69.8 µM (inactive) in the test on OVCAR-4.

With `COc1cc2ccnc3c2c(c1OC)-c1coc(SC)c1-3`, the GI50 with SN12C was > 100 µM (inactive); in the test with UACC-257, > 100 µM (inactive); with 786-0, 57 µM (inactive); in the test on SK-MEL-5, 54.7 µM (inactive); in the test with SK-MEL-2, > 100 µM (inactive); with NCI-H522, 32.4 µM (inactive). For the same molecule, the GI50 was > 100 µM (inactive) in the test on HCC 2998; 97.3 µM (inactive) in the test with NCI-H460; 29 µM (inactive) in the test with HOP-92; 13.4 µM (inactive) in the test with SF-295; 92 µM (inactive) in the test on SF-268; 9.18 µM (inactive) in the test with HL-60. For the same molecule, the GI50 in the test on LOX IMVI was 82 µM (inactive); in the test on SW-620, > 100 µM (inactive); in the test on COLO 205, > 100 µM (inactive); with RPMI-8226 it was 13 µM (inactive); with OVCAR-4, 48.6 µM (inactive).
